Consider three compounds from patent US20050136040A1, “Control of gene expression using a complex of an oligonucleotide and a regulatory peptide” (Imperial College Innovations Limited, priority 2001, published 2005).

[5FU] = 5-fluoro-deoxyuracil base

The test system of series [1] is androgen receptor gene. Put plainly: RT-PCR of androgen receptor mRNA, LNCap cells treated with ARP-L218 and cyproterone acetate. Type of series: cell-based, human. The settings on record: 3 days. As for the experimental part: (§1) RT-PCR analysis of androgen receptor mRNA. After ethidium bromide staining the quantity of electrophoresed amplicons was determined in arbitrary units using a Labworks image reader.
ARP-L218 was prepared in phosphate buffer saline (PBS), 0.2 μm syringed filtered and used on day of test set-up.
LNCap cells were transfected with ARP-L218 using lipofectamine2000 (cationic activated dendrimer, InVitrogen life technologies) with/without antagonist. Various amounts of ARP-L218 were mixed with a fixed amount of lipofectamine2000 (3 μl) in a total volume of 100 μl serum free medium without antibiotics (OptiMEM). After 20 mins incubation at room temperature, the transfection mixture was added to cells at 70% confluency and cells were incubated for 3 days.
(§2) RNA was extracted and RT-PCR analysis of AR mRNA levels conducted as described above.

A further series relates to PSA. As to the kind of experiment: Secreted PSA by immunoassay in LnCap cells with or without R1881 (Example 2). The series is classed as cell-based, human. The settings on record: LnCap control cells (no or irrelevant oligonucleotide-peptide fusion), 72 hours. As for the experimental part: In an example, the prostate cancer cell line LnCap is treated with the oligonucleotide-peptide fusion comprising a MAD1 or Sap18 peptide as described in Example 1. Transfected cells are optionally identified and/or isolated (for example using a GFP marker and FACS techniques) and are assayed for androgen receptor gene expression as well as for the classic prostate cancer marker PSA. For example, GFP-positive, FACS sorted cells were cultured in the presence or absence of the AR agonist R1881. After 72 hours, culture media were collected and the amount of the androgen-regulated protein PSA determined by immunoassay. Addition of R1881 results in an approximately 25-fold increase in levels of secreted PSA in control cells (with no oligonucleotide-peptide fusion, or an irrelevant oligonucleotide-peptide fusion).

Series [2] has as its system androgen receptor gene. Put plainly: RT-PCR of androgen receptor mRNA, LNCap cells treated with ARP-L218 and R1881. The series is classed as cell-based, human. Conditions: 3 days; for AR mRNA Percentage of control: vs PBS treated control. As for the experimental part: as §1
The effect of ARP-L218 on androgen receptor gene expression with and without a synthetic androgen (R1881) was measured using the protocol outlined in the above section.
ARP-L218 was prepared in phosphate buffer saline (PBS), 0.2 μm syringed filtered and used on day of test set-up. R1881 (synthetic androgen) was purchased from Perkin Elmer, Catalogue number NLP005005MG.
LNCap cells were transfected with ARP-L218 using lipofectamine2000 (cationic activated dendrimer, InVitrogen life technologies) with/without agonist. Various amounts of ARP-L218 were mixed with a fixed amount of lipofectamine2000 (3 μl) in a total volume of 100 μl serum free medium without antibiotics (OptiMEM). After 20 mins incubation at room temperature, the transfection mixture was added to cells at 70% confluency and cells were incubated for 3 days.
as §2

Series [3] concerns Prostate specific antigens (PSA) protein levels. As to the kind of experiment: Total PSA in LNCap cell supernatants, chemiluminescent immunometric assay. Conditions: LNCap supernatant, 3 days. Type of series: cell-based, human. As for the experimental part:
Cells were incubated in the presence of R1881 for 3 days. PSA levels in the supernatants were measure by ELISA. Each column represent total prostate specific antigen (PSA).
Therefore, using the protocols described in Example 8 ARP-L218 was transfected into LNCap cells (GET/LNC/W39/P6) with Lipofectamine 2000 (InVitrogen) with or without R1881 (Perkin Elmer), a synthetic androgen, for 3 days, after which the supernatant were harvested for quantitation of total PSA protein at the Pathology Centre, Hammersrnith Hospital, London, U.K.
PSA measurements were carried out by a chemiluminescent labelled immunometric assay using an automated immunoassay analyser (Abbott Architect Immunoassay Analyser).

Series [4] relates to interferon stimulated response element (IRE) of the human 6-16 gene. As to the kind of experiment: Interferon-induced EGFP expression by FACS in modified HT1080 cells (C8). The series is classed as cell-based. The settings on record: for Interferon-induced GFP expression: +INF 300 units/ml for one day. As for the experimental part: Cells habouring EGFP under the control of the interferon stimulated response element (ISRE) of the human 6-16 gene were transiently transfected with different compounds. Cells were then treated with 300 units/ml of IFN for one day and analysed by FACS for the GFP expression. • a) Parental cell line, no treatment • b) Cells expressing the stably transfected construct (C8), no treatment • c) C8 treated with interferon (+INF) • d) C8 transfected with 500 pm TFO, +INF • e) C8 specific TFO 1000 pM, +INF • f) C8, GeneICE1 500 pM, +INF • g) C8, GeneICE 2 500 pM, +INF • h) C8, unspecific control TFO 500 pM, +INF • i) C8, unspecific control TFO 1000 pM, +INF
These cells have a stably incorporated gene expressing EGFP under the control of the interferon stimulated response element (IRE) of the human 6-16 gene.
For the following data, cells were transiently transfected with different compounds using standard lipofectamine protocols. Cells were then treated with 300 units/ml of interferon (INF) for one day and analysed by FACS for the GFP expression.
Background: In flow cytometry, cells or beads pass a laser one at a time.

In the case of `CC(=O)O[C@]1(C(C)=O)CC[C@H]2[C@@H]3C=C(Cl)C4=CC(=O)[C@@H]5C[C@@H]5[C@]4(C)[C@H]3CC[C@@]21C` [Cyproterone Acetate, Cyproterone acetate], the “androgen receptor gene expression levels (in words)” value in the series with androgen receptor gene [1] is reported as “can act to reduce AR gene expression”. Besides, the AR band quantitation in the series on androgen receptor gene [1] (Cyproterone Acetate 0.1 nM) came out at 2357; in the series on androgen receptor gene [1] (Cyproterone Acetate 10 nM), 2401; with androgen receptor gene [1] (Cyproterone Acetate 1 uM) it was 1868; with androgen receptor gene [1] (Cyproterone Acetate 10 uM), 1568. Further, the entries for the “AR mRNA % of control” value with androgen receptor gene [1] (Cyproterone Acetate 0.1 nM), with androgen receptor gene [1] (Cyproterone Acetate 10 nM) and with androgen receptor gene [1] (Cyproterone Acetate 1 uM) were 54.0%, 51.5% and 47.8%, respectively.
Consider `C[C@]1(O)CC[C@H]2[C@@H]3CCC4=CC(=O)CCC4=C3C=C[C@@]21C` [R1881], for which, in the series on PSA, the “increase in levels of secreted PSA on addition of R1881” value was “approximately 25 fold”. For the same compound, the “androgen receptor gene expression levels (in words)” value in the series with androgen receptor gene [2] is listed as “can act to reduce AR gene expression”. In addition, the “AR Ratio/beta-actin” value in the series with androgen receptor gene [2] (R1881 0.01 nM) was 0.237; with androgen receptor gene [2] (R1881 1 nM), 0.103; in the series with androgen receptor gene [2] (R1881 100 nM), 0.116; in the series on androgen receptor gene [2] (R1881 1 uM) it was 0.165. Moreover, the AR band quantitation is 2083 in the series on androgen receptor gene [2] (R1881 0.01 nM), 1471 in the series with androgen receptor gene [2] (R1881 1 nM), 1455 in the series on androgen receptor gene [2] (R1881 100 nM) and 1388 in the series on androgen receptor gene [2] (R1881 1 uM). Besides, the “AR band quantitation Average” value is listed as 2083 in the series on androgen receptor gene [2] (R1881 0.01 nM), 1471 in the series with androgen receptor gene [2] (R1881 1 nM), 1455 with androgen receptor gene [2] (R1881 100 nM) and 1388 in the series with androgen receptor gene [2] (R1881 1 uM). Besides, the “AR mRNA Percentage of control” value with androgen receptor gene [2] (R1881 0.01 nM) is reported as 71.73%; in the series on androgen receptor gene [2] (R1881 1 nM), 31.29%; with androgen receptor gene [2] (R1881 100 nM), 35.17%; in the series on androgen receptor gene [2] (R1881 1 uM), 49.92%. Also, the “effect on PSA levels (in words)” value in series [3] is given as “show an increase in PSA levels”. Moreover, the “Total PSA” value in series [3] (R1881 0.01 nM) turned out to be 372 ng/mL; in series [3] (R1881 100 nM), 1980 ng/mL.
As for “specific TFO: IRE TFO (5′) GGGUGGTGGGGTTGTGTT (3′), U = 5-fluro-deoxyuracil, without peptide (DNA, [5FU] at 4, backbone not given here)”, the “Interferon-induced GFP expression” value in series [4] (500 pM) worked out at 53%; in series [4] (1000 pM), 63%. The “average repression of INF induced GFP expression” value in series [4] (+INF, average over the conditions of Table 4) is reported as 42%.
